Consider seven cell lines from the supplement of paper PMC10307832.

Test in all cases: relative viability (nuclei count vs DMSO), 5 days (fraction); higher = more cells survive
Compound in the assay “Bemcentinib + Pemetrexed”: Nc1nc(Nc2ccc3c(c2)CC[C@@H](N2CCCC2)CC3)nn1-c1cc2c(nn1)-c1ccccc1CCC2 [Bemcentinib] + Nc1nc2[nH]cc(CCc3ccc(C(=O)N[C@@H](CCC(=O)O)C(=O)O)cc3)c2c(=O)[nH]1 [Pemetrexed] (partner 0.2 µM)
The method, boiled down:
(§1)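 Lung cancer cell lines in 1536-well plates were dosed by pin tool the day after seeding, either with one drug alone or with a fixed anchor-drug dose plus five library-drug doses (not always all listed) in √10 steps. After 5 days, cells were fixed and their nuclei stained in one step (final 0.05% Triton X-100, 1% formaldehyde, 1 ug/ml Hoechst), then counted on 4× images. Relative viability is the nuclei count in treated wells divided by that in vehicle wells. Values are medians of duplicate plates.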

Compound in the assay “Bemcentinib + Crizotinib”: Nc1nc(Nc2ccc3c(c2)CC[C@@H](N2CCCC2)CC3)nn1-c1cc2c(nn1)-c1ccccc1CCC2 [Bemcentinib] + C[C@@H](Oc1cc(-c2cnn(C3CCNCC3)c2)cnc1N)c1c(Cl)ccc(F)c1Cl [Crizotinib] (partner 1 µM)
The method, boiled down: as §1

Compound in the assay “Axitinib + Crizotinib”: CNC(=O)c1ccccc1Sc1ccc2c(/C=C/c3ccccn3)n[nH]c2c1 [Axitinib] + C[C@@H](Oc1cc(-c2cnn(C3CCNCC3)c2)cnc1N)c1c(Cl)ccc(F)c1Cl [Crizotinib] (partner 1 µM)
The method, boiled down:
as §1

Compound in the assay “Bemcentinib + Luminespib”: Nc1nc(Nc2ccc3c(c2)CC[C@@H](N2CCCC2)CC3)nn1-c1cc2c(nn1)-c1ccccc1CCC2 [Bemcentinib] + CCNC(=O)c1noc(-c2cc(C(C)C)c(O)cc2O)c1-c1ccc(CN2CCOCC2)cc1 [Luminespib] (partner 0.01 µM)
The method, boiled down: as §1

Consider NCI-H358, for which the relative viability in the assay with Bemcentinib + Pemetrexed (first compound 0.04 µM) is 0.176; with Bemcentinib + Pemetrexed (first compound 0.1265 µM) it was 0.177; with Bemcentinib + Pemetrexed (first compound 0.4 µM) it was 0.166; with Bemcentinib + Pemetrexed (first compound 1.265 µM) it was 0.187; with Bemcentinib + Pemetrexed (first compound 4 µM), 0.179; with Bemcentinib + Crizotinib (first compound 0.04 µM), 0.587. In addition, the relative viability with Bemcentinib + Crizotinib (first compound 0.1265 µM) turned out to be 0.506; in the assay with Bemcentinib + Crizotinib (first compound 0.4 µM), 0.511; with Bemcentinib + Crizotinib (first compound 1.265 µM), 0.54; with Bemcentinib + Crizotinib (first compound 4 µM), 0.53; in the assay with Axitinib + Crizotinib (first compound 0.005 µM), 0.401; with Axitinib + Crizotinib (first compound 0.01581 µM), 0.636. Besides, the relative viability with Axitinib + Crizotinib (first compound 0.05 µM) came to 0.625; with Axitinib + Crizotinib (first compound 0.1581 µM), 0.549; with Axitinib + Crizotinib (first compound 0.5 µM), 0.596; with Bemcentinib + Luminespib (first compound 0.04 µM), 0.319; in the assay with Bemcentinib + Luminespib (first compound 0.1265 µM) it was 0.335; with Bemcentinib + Luminespib (first compound 0.4 µM), 0.303. Also, the relative viability amounted to 0.247 in the assay with Bemcentinib + Luminespib (first compound 1.265 µM) and 0.369 in the assay with Bemcentinib + Luminespib (first compound 4 µM).
Turning to NCI-H441, the relative viability with Bemcentinib + Pemetrexed (first compound 0.04 µM) was found to be 0.24; in the assay with Bemcentinib + Pemetrexed (first compound 0.1265 µM), 0.243; in the assay with Bemcentinib + Pemetrexed (first compound 0.4 µM), 0.267; with Bemcentinib + Pemetrexed (first compound 1.265 µM) it was 0.245; with Bemcentinib + Pemetrexed (first compound 4 µM), 0.275; in the assay with Bemcentinib + Crizotinib (first compound 0.04 µM), 0.66. The relative viability came to 0.704 with Bemcentinib + Crizotinib (first compound 0.1265 µM); 0.757 with Bemcentinib + Crizotinib (first compound 0.4 µM); 0.665 in the assay with Bemcentinib + Crizotinib (first compound 1.265 µM); 0.779 in the assay with Bemcentinib + Crizotinib (first compound 4 µM); 0.69 with Axitinib + Crizotinib (first compound 0.005 µM); 0.797 with Axitinib + Crizotinib (first compound 0.01581 µM). The relative viability with Axitinib + Crizotinib (first compound 0.05 µM) turned out to be 0.654; in the assay with Axitinib + Crizotinib (first compound 0.1581 µM), 0.794; in the assay with Axitinib + Crizotinib (first compound 0.5 µM), 0.853; in the assay with Bemcentinib + Luminespib (first compound 0.04 µM), 0.354; with Bemcentinib + Luminespib (first compound 0.1265 µM) it was 0.485; in the assay with Bemcentinib + Luminespib (first compound 0.4 µM), 0.303. In addition, the relative viability in the assay with Bemcentinib + Luminespib (first compound 1.265 µM) stood at 0.469; with Bemcentinib + Luminespib (first compound 4 µM) it was 0.321.
Turning to NCI-H460, the relative viability amounted to 0.0651 with Bemcentinib + Pemetrexed (first compound 0.04 µM); 0.0562 with Bemcentinib + Pemetrexed (first compound 0.1265 µM); 0.0565 in the assay with Bemcentinib + Pemetrexed (first compound 0.4 µM); 0.0602 in the assay with Bemcentinib + Pemetrexed (first compound 1.265 µM); 0.0631 with Bemcentinib + Pemetrexed (first compound 4 µM); 0.976 with Bemcentinib + Crizotinib (first compound 0.04 µM). The relative viability with Bemcentinib + Crizotinib (first compound 0.1265 µM) worked out at 0.994; with Bemcentinib + Crizotinib (first compound 0.4 µM) it was 0.937; in the assay with Bemcentinib + Crizotinib (first compound 1.265 µM) it was 1.04; in the assay with Bemcentinib + Crizotinib (first compound 4 µM) it was 0.964; with Axitinib + Crizotinib (first compound 0.005 µM) it was 1.05; with Axitinib + Crizotinib (first compound 0.01581 µM) it was 0.876. The relative viability turned out to be 0.915 with Axitinib + Crizotinib (first compound 0.05 µM); 0.816 in the assay with Axitinib + Crizotinib (first compound 0.1581 µM); 1.13 with Axitinib + Crizotinib (first compound 0.5 µM); 0.0301 with Bemcentinib + Luminespib (first compound 0.04 µM); 0.0417 with Bemcentinib + Luminespib (first compound 0.1265 µM); 0.0326 with Bemcentinib + Luminespib (first compound 0.4 µM). Also, the relative viability came out at 0.0332 in the assay with Bemcentinib + Luminespib (first compound 1.265 µM) and 0.0269 with Bemcentinib + Luminespib (first compound 4 µM).
Turning to NCI-H520, the relative viability in the assay with Bemcentinib + Pemetrexed (first compound 0.04 µM) is 0.65; with Bemcentinib + Pemetrexed (first compound 0.1265 µM), 0.848; in the assay with Bemcentinib + Pemetrexed (first compound 0.4 µM) it was 0.788; in the assay with Bemcentinib + Pemetrexed (first compound 1.265 µM), 0.686; with Bemcentinib + Pemetrexed (first compound 4 µM), 0.785; with Bemcentinib + Crizotinib (first compound 0.04 µM) it was 0.53. In addition, the relative viability stood at 0.823 with Bemcentinib + Crizotinib (first compound 0.1265 µM); 0.912 with Bemcentinib + Crizotinib (first compound 0.4 µM); 0.971 with Bemcentinib + Crizotinib (first compound 1.265 µM); 0.686 in the assay with Bemcentinib + Crizotinib (first compound 4 µM); 0.72 with Axitinib + Crizotinib (first compound 0.005 µM); 0.829 with Axitinib + Crizotinib (first compound 0.01581 µM). In addition, the relative viability came to 0.734 with Axitinib + Crizotinib (first compound 0.05 µM); 0.542 with Axitinib + Crizotinib (first compound 0.1581 µM); 0.776 in the assay with Axitinib + Crizotinib (first compound 0.5 µM); 0.248 in the assay with Bemcentinib + Luminespib (first compound 0.04 µM); 0.191 with Bemcentinib + Luminespib (first compound 0.1265 µM); 0.252 in the assay with Bemcentinib + Luminespib (first compound 0.4 µM). Moreover, the figures for the relative viability with Bemcentinib + Luminespib (first compound 1.265 µM) and with Bemcentinib + Luminespib (first compound 4 µM) were 0.23 and 0.303, respectively.
With NCI-H596, the relative viability with Bemcentinib + Pemetrexed (first compound 0.04 µM) is 0.477; in the assay with Bemcentinib + Pemetrexed (first compound 0.1265 µM), 0.53; with Bemcentinib + Pemetrexed (first compound 0.4 µM), 0.55; in the assay with Bemcentinib + Pemetrexed (first compound 1.265 µM) it was 0.478; with Bemcentinib + Pemetrexed (first compound 4 µM) it was 0.474; with Bemcentinib + Crizotinib (first compound 0.04 µM) it was 0.969. The relative viability in the assay with Bemcentinib + Crizotinib (first compound 0.1265 µM) stood at 1.01; with Bemcentinib + Crizotinib (first compound 0.4 µM), 1.08; in the assay with Bemcentinib + Crizotinib (first compound 1.265 µM), 1.1; in the assay with Bemcentinib + Crizotinib (first compound 4 µM), 1.05; in the assay with Axitinib + Crizotinib (first compound 0.005 µM), 1.03; with Axitinib + Crizotinib (first compound 0.01581 µM) it was 1.06. Besides, the relative viability was determined as 1.06 in the assay with Axitinib + Crizotinib (first compound 0.05 µM); 0.993 with Axitinib + Crizotinib (first compound 0.1581 µM); 0.495 with Axitinib + Crizotinib (first compound 0.5 µM); 0.893 with Bemcentinib + Luminespib (first compound 0.04 µM); 1.12 with Bemcentinib + Luminespib (first compound 0.1265 µM); 1.23 with Bemcentinib + Luminespib (first compound 0.4 µM). In addition, the relative viability was 1.27 in the assay with Bemcentinib + Luminespib (first compound 1.265 µM) and 1.09 with Bemcentinib + Luminespib (first compound 4 µM).
In the case of NCI-H647, the relative viability came to 0.175 in the assay with Bemcentinib + Pemetrexed (first compound 0.04 µM); 0.164 with Bemcentinib + Pemetrexed (first compound 0.1265 µM); 0.199 with Bemcentinib + Pemetrexed (first compound 0.4 µM); 0.156 with Bemcentinib + Pemetrexed (first compound 1.265 µM); 0.152 with Bemcentinib + Pemetrexed (first compound 4 µM); 1.13 with Bemcentinib + Crizotinib (first compound 0.04 µM). The relative viability with Bemcentinib + Crizotinib (first compound 0.1265 µM) came to 1.39; in the assay with Bemcentinib + Crizotinib (first compound 0.4 µM) it was 1.1; with Bemcentinib + Crizotinib (first compound 1.265 µM) it was 1.12; with Bemcentinib + Crizotinib (first compound 4 µM), 1.21; with Axitinib + Crizotinib (first compound 0.005 µM), 1.12; with Axitinib + Crizotinib (first compound 0.01581 µM) it was 1.01. Besides, the relative viability with Axitinib + Crizotinib (first compound 0.05 µM) is 1.04; with Axitinib + Crizotinib (first compound 0.1581 µM), 1.09; with Axitinib + Crizotinib (first compound 0.5 µM) it was 1.23; in the assay with Bemcentinib + Luminespib (first compound 0.04 µM) it was 0.142; in the assay with Bemcentinib + Luminespib (first compound 0.1265 µM) it was 0.157; in the assay with Bemcentinib + Luminespib (first compound 0.4 µM), 0.108. In addition, the relative viability stood at 0.143 with Bemcentinib + Luminespib (first compound 1.265 µM) and 0.136 with Bemcentinib + Luminespib (first compound 4 µM).
Consider NCI-H661, for which the relative viability with Bemcentinib + Pemetrexed (first compound 0.04 µM) was 0.906; in the assay with Bemcentinib + Pemetrexed (first compound 0.1265 µM), 0.953; in the assay with Bemcentinib + Pemetrexed (first compound 0.4 µM), 0.965; with Bemcentinib + Pemetrexed (first compound 1.265 µM), 0.899; with Bemcentinib + Pemetrexed (first compound 4 µM) it was 0.991; with Bemcentinib + Crizotinib (first compound 0.04 µM) it was 0.878. Further, the relative viability amounted to 0.947 with Bemcentinib + Crizotinib (first compound 0.1265 µM); 0.852 with Bemcentinib + Crizotinib (first compound 0.4 µM); 0.998 in the assay with Bemcentinib + Crizotinib (first compound 1.265 µM); 1.02 with Bemcentinib + Crizotinib (first compound 4 µM); 0.976 with Axitinib + Crizotinib (first compound 0.005 µM); 1.03 with Axitinib + Crizotinib (first compound 0.01581 µM). Further, the relative viability with Axitinib + Crizotinib (first compound 0.05 µM) turned out to be 0.995; with Axitinib + Crizotinib (first compound 0.1581 µM), 1.02; with Axitinib + Crizotinib (first compound 0.5 µM), 1.08; with Bemcentinib + Luminespib (first compound 0.04 µM), 0.87; with Bemcentinib + Luminespib (first compound 0.1265 µM), 0.961; in the assay with Bemcentinib + Luminespib (first compound 0.4 µM), 0.895. For the same cell line, the relative viability with Bemcentinib + Luminespib (first compound 1.265 µM) is 0.963; with Bemcentinib + Luminespib (first compound 4 µM) it was 0.987.
